According to US10130693B2, “Peptides, combination of peptides and scaffolds for use in immunotherapeutic treatment of various cancers” (Immatics Biotechnologies GmbH, priority 2015, dated 2018):

Columns and labels:
CD8+ T cells = experiment: In vitro immunogenicity: T-cell priming with aAPCs loaded with HLA-A*24 peptide/MHC and anti-CD28, multimer staining; format: cell-based, human; conditions: HLA-A*24 peptides
Procedure: CD8+ T cells were primed using artificial APCs coated with anti-CD28 mAb and HLA-A*24 in complex with SEQ ID NO: 99 peptide (FIG. 5A, left panel), SEQ ID NO: 119 peptide (FIG. 5B, left panel), SEQ ID NO: 142 peptide (FIG. 5C, left panel) and SEQ ID NO: 174 peptide FIG. 5 (D, left panel), respectively. After three cycles of stimulation, the detection of peptide-reactive cells was performed by 2D multimer staining with A*24/SEQ ID NO: 99 (FIG. 5A), A*24/SEQ ID NO: 119 (FIG. 5B), A*24/SEQ ID NO: 142 (FIG. 5C) or A*24/SEQ ID NO: 174 (FIG. 5D). Right panels (FIGS. 5A,5B,5C and 5D) show control staining of cells stimulated with irrelevant A*24/peptide complexes. Viable singlet cells were gated for CD8+ lymphocytes. Boolean gates helped excluding false-positive events detected with multimers specific for different peptides. Frequencies of specific multimer+ cells among CD8+ lymphocytes are indicated.
Generation of pMHC/anti-CD28 coated beads, T-cell stimulations and readout was performed in a highly defined in vitro system using four different pMHC molecules per stimulation condition and 8 different pMHC molecules per readout condition.
The purified co-stimulatory mouse IgG2a anti human CD28 Ab 9.3 (Jung et al., 1987) was chemically biotinylated using Sulfo-N-hydroxysuccinimidobiotin as recommended by the manufacturer (Perbio, Bonn, Germany). Beads used were 5.6 μm diameter streptavidin coated polystyrene particles (Bangs Laboratories, Illinois, USA).
800.000 beads/200 μl were coated in 96-well plates in the presence of 4×12.5 ng different biotin-pMHC, washed and 600 ng biotin anti-CD28 were added subsequently in a volume of 200 μl. Stimulations were initiated in 96-well plates by co-incubating 1×10^6 CD8+ T cells with 2×10^5 washed coated beads in 200 μl TCM supplemented with 5 ng/ml IL-12 (PromoCell) for 3 days at 37° C. Half of the medium was then exchanged by fresh TCM supplemented with 80 U/ml IL-2 and incubating was continued for 4 days at 37° C. This stimulation cycle was performed for a total of three times. For the pMHC multimer readout using 8 different pMHC molecules per condition, a two-dimensional combinatorial coding approach was used as previously described (Andersen et al., 2012) with minor modifications encompassing coupling to 5 different fluorochromes. Finally, multimeric analyses were performed by staining the cells with Live/dead near IR dye (Invitrogen, Karlsruhe, Germany), CD8-FITC antibody clone SK1 (BD, Heidelberg, Germany) and fluorescent pMHC multimers. For analysis, a BD LSRII SORP cytometer equipped with appropriate lasers and filters was used. Peptide specific cells were calculated as percentage of total CD8+ cells. Evaluation of multimeric analysis was done using the FlowJo software (Tree Star, Oregon, USA). In vitro priming of specific multimer+CD8+ lymphocytes was detected by comparing to negative control stimulations.

HLA-A*24 = experiment: MHC binding assay, UV-ligand exchange with beta2m ELISA (exchange yield), HLA-A*24; parameters: species or system human; conditions: binding to HLA-A*24, UV-ligand exchange
Summary of the method: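 Peptide–MHC complexes formed by UV-ligand exchange: a UV-cleavable peptide is replaced by the test peptide, and only binders keep the complex stable. Exchange yield read by streptavidin-capture ELISA on reactions diluted 100-fold, detected with HRP anti-β2m (2 ug/ml, 1 h, 37° C) and TMB at 450 nm.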

| Peptide exchange (MHC class I binding score, peptide exchange yield) (HLA-A*24) | Substance | in vitro immunogenicity, Wells positive [%] (CD8+ T cells) |
| --- | --- | --- |
| ++++ (>=75% = ++++) | 365 (VFIDHPVHL; listed as Homo sapiens) [compound 365] | + (<20% = +) |
| +++ (50%-75% = +++) | 177 (VYFKAGLDVF; listed as Homo sapiens) [compound 177] | + (<20% = +) |
| ++++ (>=75% = ++++) | 132 (RYPALFPVL; listed as Homo sapiens) [compound 132] | + (<20% = +) |
| +++ (50%-75% = +++) | 115 (RYLNKSFVL; listed as Homo sapiens) [compound 115] | + (<20% = +) |
| ++++ (>=75% = ++++) | 155 (IYKWITDNF; listed as Homo sapiens) [compound 155] | ++ (20%-49% = ++) |
| ++++ (>=75% = ++++) | 163 (RYLTISNLQF; listed as Homo sapiens) [compound 163] | + (<20% = +) |
| +++ (50%-75% = +++) | 103 (NYIPVKNGKQF; listed as Homo sapiens) [compound 103] | + (<20% = +) |
| ++++ (>=75% = ++++) | 182 (AYAQLGYLLF; listed as Homo sapiens) [compound 182] | +++ (50%-69% = +++) |
| +++ (50%-75% = +++) | 171 (NYEDHFPLL; listed as Homo sapiens) [compound 171] | ++ (20%-49% = ++) |
| ++++ (>=75% = ++++) | 114 (QYLDGTWSL; listed as Homo sapiens) [compound 114] | +++ (50%-69% = +++) |
| +++ (50%-75% = +++) | 181 (VYPPYLNYL; listed as Homo sapiens) [compound 181] | ++++ (>=70% = ++++) |
| +++ (50%-75% = +++) | 277 (FYTFPFQQL; listed as Homo sapiens) [compound 277] | +++ (50%-69% = +++) |
| +++ (50%-75% = +++) | 179 (TYIPVGLGRLL; listed as Homo sapiens) [compound 179] | +++ (50%-69% = +++) |
| +++ (50%-75% = +++) | 139 (IFGIFPNQF; listed as Homo sapiens) [compound 139] | ++ (20%-49% = ++) |
| ++ (20%-49% = ++) | 371 (AYSHLRYVF; listed as Homo sapiens) [compound 371] | ++ (20%-49% = ++) |
| ++ (20%-49% = ++) | 162 (KYTSYILAF; listed as Homo sapiens) [compound 162] | + (<20% = +) |
| +++ (50%-75% = +++) | 122 (EYQARIPEF; listed as Homo sapiens) [compound 122] | ++ (20%-49% = ++) |
| +++ (50%-75% = +++) | 164 (HYVPATKVF; listed as Homo sapiens) [compound 164] | + (<20% = +) |
| ++++ (>=75% = ++++) | 166 (FYTLPFHLI; listed as Homo sapiens) [compound 166] | ++++ (>=70% = ++++) |
| +++ (50%-75% = +++) | 360 (VFSPDGHLF; listed as Homo sapiens) [compound 360] | ++ (20%-49% = ++) |
| ++++ (>=75% = ++++) | 99 (QYILAVPVL; listed as Homo sapiens) [compound 99] | +++ (50%-69% = +++) |
| ++++ (>=75% = ++++) | 359 (NYGVLHVTF; listed as Homo sapiens) [compound 359] | + (<20% = +) |
| +++ (50%-75% = +++) | 168 (RYLEAALRL; listed as Homo sapiens) [compound 168] | +++ (50%-69% = +++) |
| +++ (50%-75% = +++) | 157 (DYIPASGFALF; listed as Homo sapiens) [compound 157] | + (<20% = +) |
| +++ (50%-75% = +++) | 351 (IFHEVPLKF; listed as Homo sapiens) [compound 351] | ++ (20%-49% = ++) |
| ++++ (>=75% = ++++) | 109 (LFITGGQFF; listed as Homo sapiens) [compound 109] | ++ (20%-49% = ++) |
| +++ (50%-75% = +++) | 349 (QYSIISNVF; listed as Homo sapiens) [compound 349] | ++ (20%-49% = ++) |
| +++ (50%-75% = +++) | 160 (RYGDGGSSF; listed as Homo sapiens) [compound 160] | + (<20% = +) |
| ++++ (>=75% = ++++) | 140 (RYLINSYDF; listed as Homo sapiens) [compound 140] | +++ (50%-69% = +++) |
| ++++ (>=75% = ++++) | 96 (YYTQYSQTI; listed as Homo sapiens) [compound 96] | + (<20% = +) |
